Biological target: USP1 (construct USP1 (I-785, GG670, 671AA)/UAF1 (I-677)-Flag) (Homo sapiens (Human), UniProt O94782, G670A/G671A)
Assay: Ubiquitin-Rhodamine 110 assay for USP1 activity
Format: biochemical
Conditions: USP1/UAF1 25 pM, Ub-Rh110 25 nM, 30 min preincubation
How it was run: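 Two formats with the USP1/UAF1 complex and 25 nM ubiquitin-rhodamine 110 in pH 8.0 Tris buffer with calcium, glutathione and detergent. Single-point screening used 10 µM, 100 pM enzyme and 45 min. Inhibition was set against no-enzyme and DMSO wells.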

USP1 (construct USP1 (I-785, GG670, 671AA)/UAF1 (I-677)-Flag), sequence (O94782 whole entry G670A/G671A): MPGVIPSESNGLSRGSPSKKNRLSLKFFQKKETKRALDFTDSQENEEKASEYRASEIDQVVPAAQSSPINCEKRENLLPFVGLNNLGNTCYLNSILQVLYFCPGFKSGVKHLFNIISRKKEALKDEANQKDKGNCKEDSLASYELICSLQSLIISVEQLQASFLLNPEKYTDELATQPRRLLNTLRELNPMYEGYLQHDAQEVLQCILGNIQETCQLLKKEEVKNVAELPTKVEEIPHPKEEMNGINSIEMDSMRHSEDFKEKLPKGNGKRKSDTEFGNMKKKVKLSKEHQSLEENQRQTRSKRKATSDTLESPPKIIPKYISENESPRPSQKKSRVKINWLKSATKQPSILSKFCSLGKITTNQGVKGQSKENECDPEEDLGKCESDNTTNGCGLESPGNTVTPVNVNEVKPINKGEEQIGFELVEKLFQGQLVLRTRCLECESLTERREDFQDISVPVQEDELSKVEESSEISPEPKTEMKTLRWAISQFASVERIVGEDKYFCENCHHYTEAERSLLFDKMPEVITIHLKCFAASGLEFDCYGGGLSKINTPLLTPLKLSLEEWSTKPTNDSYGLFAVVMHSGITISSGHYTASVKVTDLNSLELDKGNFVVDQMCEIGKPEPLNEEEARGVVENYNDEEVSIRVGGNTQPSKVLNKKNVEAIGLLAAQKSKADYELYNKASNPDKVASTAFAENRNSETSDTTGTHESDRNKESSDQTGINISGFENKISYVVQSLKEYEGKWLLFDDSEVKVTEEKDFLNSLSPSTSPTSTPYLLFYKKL
USP1 (construct USP1 (I-785, GG670, 671AA)/UAF1 (I-677)-Flag), sequence (Q8TAF3 whole entry partner): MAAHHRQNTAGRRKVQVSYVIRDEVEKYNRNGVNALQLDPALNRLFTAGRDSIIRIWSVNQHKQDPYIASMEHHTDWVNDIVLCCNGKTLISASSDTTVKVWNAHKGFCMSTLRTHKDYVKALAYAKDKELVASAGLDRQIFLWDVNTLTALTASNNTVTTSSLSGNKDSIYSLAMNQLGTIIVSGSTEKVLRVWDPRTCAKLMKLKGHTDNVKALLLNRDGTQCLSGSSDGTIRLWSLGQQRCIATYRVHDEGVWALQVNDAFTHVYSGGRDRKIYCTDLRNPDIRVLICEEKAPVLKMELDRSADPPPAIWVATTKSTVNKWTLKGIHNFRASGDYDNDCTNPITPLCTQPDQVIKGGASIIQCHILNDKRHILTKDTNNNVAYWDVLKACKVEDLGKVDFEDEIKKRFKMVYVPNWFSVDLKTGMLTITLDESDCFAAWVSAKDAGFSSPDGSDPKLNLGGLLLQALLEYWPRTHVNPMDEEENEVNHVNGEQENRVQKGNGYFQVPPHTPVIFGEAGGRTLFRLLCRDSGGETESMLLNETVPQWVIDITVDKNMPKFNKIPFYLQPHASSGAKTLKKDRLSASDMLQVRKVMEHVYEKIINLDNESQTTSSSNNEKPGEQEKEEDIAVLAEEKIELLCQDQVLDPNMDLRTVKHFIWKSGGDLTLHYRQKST

Going from `Cc1cc(C(F)(F)F)nn1-c1ccc(Cn2c(=O)[nH]c3cnc(-c4ccccc4C(C)C)nc32)cc1` [Compound I-194, 2-(2-isopropylphenyl)-9-(4-(5-methyl-3-(trifluoromethyl)-1H-pyrazol-1-yl)benzyl)-7,9-dihydro-8H-purin-8-one] to `CC(C)c1ccccc1-c1ncc2[nH]c(=O)n(Cc3ccc(-n4cncn4)cc3)c2n1` [Compound I-154, 9-(4-(1H-1,2,4-triazol-1-yl)benzyl)-2-(2-isopropylphenyl)-7,9-dihydro-8H-purin-8-one], the IC50 rises from under 50 nM to over 2000 nM.

Compared with `Cc1cc(C(=O)Nc2ccc(Cn3c(=O)n(C)c4cnc(-c5ccccc5C(C)C)nc43)cc2)n(C)n1` [Compound I-469, N-(4-((2-(2-isopropylphenyl)-7-methyl-8-oxo-7,8-dihydro-9H-purin-9-yl)methyl)phenyl)-1,3-dimethyl-1H-pyrazole-5-carboxamide], `CC(C)c1ccccc1-c1ncc2c(n1)n(Cc1ccc(-c3nc(N4CCOCC4)n(C)n3)cc1)c(=O)n2C` [Compound I-282, 2-(2-isopropylphenyl)-7-methyl-9-(4-(1-methyl-5-morpholino-1H-1,2,4-triazol-3-yl)benzyl)-7,9-dihydro-8H-purin-8-one] is lower in IC50: 200 to 2000 nM for the first, 50 to 200 nM for the second. The second is the more potent here.

First: CCC(C)Oc1ncccc1-c1ncc2[nH]c(=O)n(Cc3ccc(-c4nc(C(F)(F)F)cn4C)cc3)c2n1 (stereo not drawn) [Compound I-417, 2-(2-(sec-butoxy)pyridin-3-yl)-9-(4-(1-methyl-4-(trifluoromethyl)-1H-imidazol-2-yl)benzyl)-7,9-dihydro-8H-purin-8-one]
Second: Cc1cc(C(F)(F)F)n(-c2ccc(Cn3c(=O)[nH]c4cnc(-c5cccnc5OCC(F)(F)F)nc43)cc2)n1 [Compound I-41, 9-(4-(3-methyl-5-(trifluoromethyl)-1H-pyrazol-1-yl)benzyl)-2-(2-(2,2,2-trifluoroethoxy)pyridin-3-yl)-7,9-dihydro-8H-purin-8-one]
The IC50 of the first is lower: under 50 nM for the first, 50 to 200 nM for the second. The first is the more potent here.

Compared with `Cc1cc(C)n(-c2ccc([C@H](C)n3c(=O)[nH]c4cnc(-c5ccccc5C(C)C)nc43)cc2)n1` [Compound I-191, (S)-9-(1-(4-(3,5-dimethyl-1H-pyrazol-1-yl)phenyl)ethyl)-2-(2-isopropylphenyl)-7,9-dihydro-8H-purin-8-one], `CC(C)c1ccccc1-c1ncc2[nH]c(=O)n(Cc3ccc4c(c3)ncn4C)c2n1` [Compound I-182, 2-(2-isopropylphenyl)-9-((1-methyl-1H-benzo[d]imidazol-5-yl)methyl)-7,9-dihydro-8H-purin-8-one] is higher in IC50: under 50 nM for the first, over 2000 nM for the second. The first is the more potent here.

First: CC(C)c1ccccc1-c1ncc2c(n1)n(CC1CCN(S(=O)(=O)C(C)C)CC1)c(=O)n2C [Compound I-450, 2-(2-isopropylphenyl)-9-((1-(isopropylsulfonyl)piperidin-4-yl)methyl)-7-methyl-7,9-dihydro-8H-purin-8-one]
Second: CC(C)c1ccccc1-c1ncc2c(n1)n(Cc1ccc(-c3ccccc3OCCN(C)C)cc1)c(=O)n2C [Compound I-259, 9-((2′-(2-(dimethylamino)ethoxy)-[1,1′-biphenyl]-4-yl)methyl)-2-(2-isopropylphenyl)-7-methyl-7,9-dihydro-8H-purin-8-one]
The IC50 of the first is higher: 50 to 200 nM for the first, under 50 nM for the second.

First: CC(=O)N1CCN(C(=O)c2ccc(Cn3c(=O)[nH]c4cnc(-c5ccccc5C(C)C)nc43)cc2)CC1 [Compound I-383, 9-(4-(4-acetylpiperazine-1-carbonyl)benzyl)-2-(2-isopropylphenyl)-7,9-dihydro-8H-purin-8-one]
Second: CC(C)c1ncccc1-c1ncc2c(n1)n([C@H](C)c1ccc(-c3nc(C(F)(F)F)cn3C)cc1)c(=O)n2C [Compound I-115, (R)-2-(2-isopropylpyridin-3-yl)-7-methyl-9-(1-(4-(1-methyl-4-(trifluoromethyl)-1H-imidazol-2-yl)phenyl)ethyl)-7,9-dihydro-8H-purin-8-one]
The IC50 of the first is higher: 200 to 2000 nM for the first, under 50 nM for the second. The second is the more potent here.
